Measurements taken from the NIST ThermoML archive (doi:10.1007/s10765-013-1491-2).
Where “and” joins values, the source holds several entries; their conditions need not be identical. Identical values can stand only once. ± gives the expanded uncertainty stated by the source.

Settings: 101.33 kPa, Liquid, Alternating current cell with electrodes

## CCCCCC[n+]1ccn(C)c1.O=S(=O)([N-]S(=O)(=O)C(F)(F)F)C(F)(F)F
288.27 K
  electrical conductivity: 0.136 S/m
293.13 K
  electrical conductivity: 0.172 ± 0.0069 S/m
298.1 K
  electrical conductivity: 0.216 ± 0.0087 S/m
303.18 K
  electrical conductivity: 0.268 ± 0.011 S/m
308.13 K
  electrical conductivity: 0.326 ± 0.013 S/m
313.08 K
  electrical conductivity: 0.391 ± 0.016 S/m
323.11 K
  electrical conductivity: 0.544 ± 0.022 S/m
333.01 K
  electrical conductivity: 0.725 ± 0.029 S/m

## CCn1cc[n+](C)c1.O=S(=O)([O-])C(F)(F)F [1-ethyl-3-methylimidazolium trifluoromethanesulfonate]
288.15 K
  electrical conductivity: 0.623 ± 0.037 S/m
288.16 K
  electrical conductivity: 0.629 ± 0.038 S/m
293.11 K
  electrical conductivity: 0.747 ± 0.045 S/m
298.16 K
  electrical conductivity: 0.886 ± 0.053 S/m
303.12 K
  electrical conductivity: 1.04 ± 0.062 S/m
308.08 K
  electrical conductivity: 1.2 ± 0.072 S/m
313.16 K
  electrical conductivity: 1.39 ± 0.083 S/m
323.06 K
  electrical conductivity: 1.78 ± 0.11 S/m
333.1 K
  electrical conductivity: 2.24 ± 0.13 S/m

## CCn1cc[n+](C)c1.O=S(=O)([N-]S(=O)(=O)C(F)(F)F)C(F)(F)F
288.16 K
  electrical conductivity: 0.644 S/m and 0.645 S/m
293.12 K
  electrical conductivity: 0.768 ± 0.031 S/m
298.08 K
  electrical conductivity: 0.905 ± 0.036 S/m
303.15 K
  electrical conductivity: 1.06 ± 0.043 S/m
308.11 K
  electrical conductivity: 1.22 ± 0.049 S/m
313.06 K
  electrical conductivity: 1.39 ± 0.056 S/m
323.07 K
  electrical conductivity: 1.77 ± 0.071 S/m
333.11 K
  electrical conductivity: 2.2 ± 0.088 S/m

## CCOS(=O)(=O)[O-].CCn1cc[n+](C)c1 [1-ethyl-3-methylimidazolium ethyl sulfate]
288.15 K
  electrical conductivity: 0.235 ± 0.0095 S/m
288.16 K
  electrical conductivity: 0.235 ± 0.0095 S/m
293.12 K
  electrical conductivity: 0.302 ± 0.012 S/m
298.08 K
  electrical conductivity: 0.381 ± 0.015 S/m
303.15 K
  electrical conductivity: 0.473 ± 0.019 S/m
308.11 K
  electrical conductivity: 0.576 ± 0.023 S/m
313.07 K
  electrical conductivity: 0.69 ± 0.028 S/m
323.08 K
  electrical conductivity: 0.961 ± 0.038 S/m
333.11 K
  electrical conductivity: 1.28 ± 0.051 S/m
